According to ChEMBL document CHEMBL4715763, “A simple, one pot synthesis of furo[3,2-c]chromenes and evaluation of antimicrobial activity” (2016):
In brackets after ≈: the same amount, converted by molar mass. Activity calls are given as the source filed them. The calls are words filed in the database; no cut-off is given here.

How the values were obtained:
Assay type in all cases: functional
Staphylococcus aureus [1] = assay: Antimicrobial activity against Staphylococcus aureus MTCC 96 assessed as inhibition zone measured after 24 hrs incubation by well diffusion method
Bacillus subtilis [2] = assay: Antimicrobial activity against Bacillus subtilis MTCC 121 assessed as inhibition zone measured after 24 hrs incubation by well diffusion method
Staphylococcus aureus [3] = assay: Antimicrobial activity against Staphylococcus aureus MLS-16 MTCC 2940 assessed as inhibition zone measured after 24 hrs incubation by well diffusion method
Pseudomonas aeruginosa = assay: Antimicrobial activity against Pseudomonas aeruginosa MTCC 2453 assessed as inhibition zone measured after 24 hrs incubation by well diffusion method
Candida albicans = assay: Antimicrobial activity against Candida albicans MTCC 3017 assessed as inhibition zone measured after 24 hrs incubation by well diffusion method
Micrococcus luteus [4] = assay: Antimicrobial activity against Micrococcus luteus MTCC 2470 assessed as inhibition zone measured after 24 hrs incubation by well diffusion method
Raoultella planticola [5] = assay: Antimicrobial activity against Klebsiella planticola MTCC 530 assessed as inhibition zone measured after 24 hrs incubation by well diffusion method
Escherichia coli [6] = assay: Antimicrobial activity against Escherichia coli MTCC 739 assessed as inhibition zone measured after 24 hrs incubation by well diffusion method
Bacillus subtilis [7] = assay: Bactericidal activity against Bacillus subtilis MTCC 121 assessed as bacterial killing after 24 hrs incubation by NCCLS protocol-based broth microdilution method
Micrococcus luteus [8] = assay: Bactericidal activity against Micrococcus luteus MTCC 2470 assessed as bacterial killing after 24 hrs incubation by NCCLS protocol-based broth microdilution method
Raoultella planticola [9] = assay: Bactericidal activity against Klebsiella planticola MTCC 530 assessed as bacterial killing after 24 hrs incubation by NCCLS protocol-based broth microdilution method
Escherichia coli [10] = assay: Bactericidal activity against Escherichia coli MTCC 739 assessed as bacterial killing after 24 hrs incubation by NCCLS protocol-based broth microdilution method

SMILES | MIC (Staphylococcus aureus [1]) | MIC (Bacillus subtilis [2]) | MIC (Staphylococcus aureus [3]) | MIC (Pseudomonas aeruginosa) | MIC (Candida albicans) | MIC (Micrococcus luteus [4]) | MIC (Raoultella planticola [5]) | MIC (Escherichia coli [6]) | MBC (Bacillus subtilis [7]) | MBC (Micrococcus luteus [8]) | MBC (Raoultella planticola [9]) | MBC (Escherichia coli [10])
COC(=O)C1(C#N)Oc2c(c(=O)oc3ccccc23)C1c1ccc(C)cc1 (stereo unspecified) | > 250 µg/mL | > 250 µg/mL | > 250 µg/mL | > 250 µg/mL | > 250 µg/mL | 125 µg/mL (≈ 346 µM) | > 250 µg/mL | > 250 µg/mL | – | – | – | –
COC(=O)C1(C#N)Oc2c(c(=O)oc3ccccc23)C1c1ccc([N+](=O)[O-])cc1 (stereo unspecified) | > 250 µg/mL | > 250 µg/mL | > 250 µg/mL | > 250 µg/mL | > 250 µg/mL | > 250 µg/mL | > 250 µg/mL | > 250 µg/mL | – | – | – | –
COC(=O)C1(C#N)Oc2c(c(=O)oc3ccccc23)C1c1ccc(F)cc1 (stereo unspecified) | 62.5 µg/mL (≈ 171 µM) | 7.8 µg/mL (≈ 21.4 µM) | 62.5 µg/mL (≈ 171 µM) | > 250 µg/mL | 62.5 µg/mL (≈ 171 µM) | 7.8 µg/mL (≈ 21.4 µM) | 7.8 µg/mL (≈ 21.4 µM) | 15.6 µg/mL (≈ 42.7 µM) | 62.5 µg/mL (≈ 171 µM) | 62.5 µg/mL (≈ 171 µM) | 62.5 µg/mL (≈ 171 µM) | 62.5 µg/mL (≈ 171 µM)
O=C(O)c1cn(C2CC2)c2cc(N3CCNCC3)c(F)cc2c1=O [CIPROFLOXACIN] | 0.9 µg/mL (≈ 2.72 µM) | 0.9 µg/mL (≈ 2.72 µM) | 0.9 µg/mL (≈ 2.72 µM) | 0.9 µg/mL (≈ 2.72 µM) | – | 0.9 µg/mL (≈ 2.72 µM) | 0.9 µg/mL (≈ 2.72 µM) | 0.9 µg/mL (≈ 2.72 µM) | 1.17 µg/mL (≈ 3.53 µM) | 1.17 µg/mL (≈ 3.53 µM) | 1.17 µg/mL (≈ 3.53 µM) | 1.17 µg/mL (≈ 3.53 µM)
COC(=O)C1(C#N)Oc2c(c(=O)oc3ccc(C)cc23)C1c1ccccc1 (stereo unspecified) | > 250 µg/mL | > 250 µg/mL | > 250 µg/mL | > 250 µg/mL | > 250 µg/mL | > 250 µg/mL | > 250 µg/mL | > 250 µg/mL | – | – | – | –
CC(C)OC(=O)C1(C#N)Oc2c(c(=O)oc3ccccc23)C1c1ccccc1 (stereo unspecified) | 125 µg/mL (≈ 333 µM) | 250 µg/mL (≈ 666 µM) | 125 µg/mL (≈ 333 µM) | > 250 µg/mL | > 250 µg/mL | 15.6 µg/mL (≈ 41.6 µM) | 15.6 µg/mL (≈ 41.6 µM) | > 250 µg/mL | inactive | 62.5 µg/mL (≈ 166 µM) | 62.5 µg/mL (≈ 166 µM) | inactive
COC(=O)C1(C#N)Oc2c(c(=O)oc3ccccc23)C1c1cc(OC)c(OC)c(OC)c1 (stereo unspecified) | 62.5 µg/mL (≈ 143 µM) | > 250 µg/mL | > 250 µg/mL | > 250 µg/mL | > 250 µg/mL | > 250 µg/mL | > 250 µg/mL | > 250 µg/mL | – | – | – | –
CCOC(=O)C1(C#N)Oc2c(c(=O)oc3ccccc23)C1c1ccc(C(F)(F)F)cc1 (stereo unspecified) | > 250 µg/mL | 250 µg/mL (≈ 582 µM) | > 250 µg/mL | > 250 µg/mL | > 250 µg/mL | > 250 µg/mL | 250 µg/mL (≈ 582 µM) | > 250 µg/mL | – | – | – | –
COC(=O)C1(C#N)Oc2c(c(=O)oc3ccccc23)C1c1ccc(Br)cc1 (stereo unspecified) | > 250 µg/mL | > 250 µg/mL | > 250 µg/mL | > 250 µg/mL | > 250 µg/mL | > 250 µg/mL | > 250 µg/mL | 12.5 µg/mL (≈ 29.3 µM) | – | – | – | –
CCOC(=O)C1(C#N)Oc2c(c(=O)oc3ccc(C)cc23)C1c1ccccc1 (stereo unspecified) | > 250 µg/mL | > 250 µg/mL | > 250 µg/mL | > 250 µg/mL | > 250 µg/mL | > 250 µg/mL | 250 µg/mL (≈ 666 µM) | > 250 µg/mL | – | – | – | –
